In US20050282743A1, “Molecular interactions in cells” (Arbor Vita Corporation, priority 2001, published 2005):
One block for each sequence: values may come before it. Ends that are not written are not given here. * marks the point of attachment. Biotin = O=C1N[C@H]2[C@H](CS[C@H]2CCCCC(=O)*)N1

Tests used:
[1] = test system: Mouse T cell lines stimulated with anti-mouse CD3; experiment: T cell stimulation assay, anti-mouse CD3, IFNγ ELISA (FIG. 1B); type: cell-based; conditions: 10 μM Tat-peptide; compared to Tat-peptide alone
Protocol: Cell Cultures Cells were maintained and tested in RPMI 1640 media supplemented with 10% fetal calf serum (HyClone), 2 mM glutamine, 10 mM Hepes, 100 U/ml penicillin, 100 μg/ml streptomycin, 0.1 mM non-essential amino acids, 1 mM sodium pyruvate, and 50 μM beta mercaptoethanol.
Supernatants were assayed for cytokine production following activation of T cell lines. Mouse T cell lines were stimulated using two different methods, either with antigen and antigen presenting cells or anti-mouse CD3.
Antibody against mouse CD3 (Pharmigen #145-2C11) was coated overnight at 4° C. using 96-well flat bottom Elisa plates at a final concentration of 0.5 μg/ml, diluted in PBS. Just prior to use, plates were washed three times with 200 μl/well PBS to remove excess anti-CD3. […]
IFNγ was measured from cell supernatants, described above, at ambient temperature using the Endogen, Inc. ELISA protocol 3. […] The presence of IFNγ was detected with a biotin-labeled anti-mouse IFNγ monoclonal antibody (MM700B, Endogen, Inc.,). […] The absorbance at 450 nm was measured using a microtiter plate reader (Thermo Max, Molecular Devices) and the concentration of unknown IFNγ from cell supernatants was calculated from a standard curve generated by Softmax Pro software (Molecular Devices).

[2] = test system: PDZ-domain polypeptide (GST/PDZ fusion protein); experiment: G assay (G0): biotinylated PL peptide 20 uM binding to immobilized GST/PDZ fusion protein; conditions: G Assay of Example 3
Protocol: “G Assay”—Detection of PDZ-Ligand Binding Using Immobilized PDZ-Domain Fusion Polypeptide
In other assays, a GST/PDZ fusion protein is immobilized on a surface (“G” assay). The binding of labeled PL peptide (e.g., as listed in TABLE 8) to this surface is then measured. Typically, the assay is carried out as follows:
(1) A PDZ-domain polypeptide is bound to a surface, e.g. a protein binding surface. In a preferred embodiment, a GST/PDZ fusion protein containing one or more PDZ domains is bound to a polystyrene 96-well plate. […] In some instances, the GST/PDZ fusion protein is bound via an anti-GST antibody that is coated onto the 96-well plate. Adequate binding to the plate can be achieved when: • a. […]
(3) The binding of the biotinylated peptide to the GST/PDZ fusion protein surface can be detected using a variety of methods and detectors known to one of skill in the art. […] The reaction of the HRP and its substrate is terminated by addition of 100 uL per well of 1M sulfuric acid, and the absorbance of each well of the plate is read at 450 nm.
(4) Specific binding of a PL peptide and a PDZ domain polypeptide is determined by comparing the signal from the well(s) in which the PL peptide and PDZ domain polypeptide are combined, with the background signal(s). […]

[3] = molecular target: T1, PDZ protein (GST-PDZ fusion) (Homo sapiens, UniProt O14907); experiment: G' assay (10 uM PL peptide), results of TABLE 7 and TABLE 12; type: binding; conditions: PDZ TIP1, PDZ Domain 1
T1 construct: made in house; host or cells: E. coli (DH5alpha, BL21 or JM109)
T1 sequence (O14907 1-124): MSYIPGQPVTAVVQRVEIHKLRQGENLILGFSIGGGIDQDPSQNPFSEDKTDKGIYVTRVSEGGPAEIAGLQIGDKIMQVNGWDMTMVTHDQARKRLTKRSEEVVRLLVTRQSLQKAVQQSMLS
Outline: (§1)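 Biotin-PL peptide (N-term label), 10 uM vs GST-PDZ; protein 5 ug/ml by default. A450 nm binned: 1 = 0-1, 2 = 1-2, 3 = 2-3, 4 = 3-4, 5 = >4 on >2 repeats, 0 = no binding.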

[4] = test system: PDZ protein (GST-PDZ fusion); experiment: as above; type: binding
Outline: as §1

[5] = molecular target: T2, PDZ protein (GST-PDZ fusion) (Homo sapiens, UniProt Q02410); experiment: as above; type: binding; conditions: PDZ Mint 1, PDZ Domain 2
T2 construct: made in house; host or cells: E. coli (DH5alpha, BL21 or JM109)
T2 sequence (Q02410 1-837): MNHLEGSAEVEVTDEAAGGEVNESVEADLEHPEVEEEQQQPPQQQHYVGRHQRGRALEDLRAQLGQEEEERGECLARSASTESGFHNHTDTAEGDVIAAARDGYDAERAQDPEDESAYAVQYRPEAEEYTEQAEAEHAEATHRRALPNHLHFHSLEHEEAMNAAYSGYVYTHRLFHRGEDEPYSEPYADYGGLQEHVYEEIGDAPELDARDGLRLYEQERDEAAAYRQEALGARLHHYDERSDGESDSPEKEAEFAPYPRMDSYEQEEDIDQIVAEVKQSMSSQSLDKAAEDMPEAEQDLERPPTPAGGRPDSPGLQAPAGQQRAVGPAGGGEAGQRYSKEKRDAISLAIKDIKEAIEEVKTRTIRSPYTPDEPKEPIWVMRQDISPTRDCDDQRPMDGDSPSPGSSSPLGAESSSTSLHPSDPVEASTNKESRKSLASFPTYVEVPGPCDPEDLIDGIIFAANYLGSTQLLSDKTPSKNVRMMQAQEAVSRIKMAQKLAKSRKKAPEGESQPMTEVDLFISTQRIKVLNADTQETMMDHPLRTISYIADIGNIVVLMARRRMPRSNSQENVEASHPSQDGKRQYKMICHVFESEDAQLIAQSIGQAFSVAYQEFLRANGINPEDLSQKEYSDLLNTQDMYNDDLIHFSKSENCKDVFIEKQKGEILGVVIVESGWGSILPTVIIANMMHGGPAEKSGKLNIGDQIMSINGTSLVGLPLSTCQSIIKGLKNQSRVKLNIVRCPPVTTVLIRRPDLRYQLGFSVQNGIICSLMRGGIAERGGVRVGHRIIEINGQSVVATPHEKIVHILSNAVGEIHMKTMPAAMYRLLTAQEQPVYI
Outline: as §1

[6] = molecular target: T3, PDZ protein (GST-PDZ fusion) (Homo sapiens, UniProt Q9Y2H9); experiment: as above; type: binding; conditions: PDZ KIAA0973, PDZ Domain 1
T3 construct: made in house; host or cells: E. coli (DH5alpha, BL21 or JM109)
Outline: as §1

KIAA807 = molecular target: T4, KIAA807 (Homo sapiens, UniProt Q6P0Q8); experiment: G' assay, TABLE 12; type: binding; conditions: A450 nm class of biotinylated PL peptide bound; 0 in conc columns = peptide 10 uM, protein 5 ug/ml
T4 construct: made in house; host or cells: E. coli (DH5alpha, BL21 or JM109)
T4 sequence (Q6P0Q8 1104-1192 limits assumed): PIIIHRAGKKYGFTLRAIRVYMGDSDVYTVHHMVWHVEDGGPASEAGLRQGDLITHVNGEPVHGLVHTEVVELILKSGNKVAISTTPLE
Protocol: (§2) The third column labeled “Peptide Optimal Concentration” in the tables is a number reflective of the binding interaction between the PL protein and PDZ protein. […] The column labeled “Protein Optimal Concentration” refers to the protein concentration used to assay PL interaction (in ug/ml); a ‘0’ is indicative of 5 ug/ml protein concentration; any other value represents the concentration (in ug/ml) used to determine the dissociation constant for a given interaction.
(§3) Finally, the seventh column labeled “Classification” is another measure of the level of binding. In particular, it provides an absorbance value at 450 nm which indicates the amount of PL peptide bound to the PDZ protein. The following numerical values have the following meanings: ‘1’—A450 nm 0-1; ‘2’—A450 nm 1-2; ‘3’—A450 nm 2-3; ‘4’—A450 nm 3-4; ‘5’—A450 nm of 4 more than 2× repeated; ‘0’—A450 nm 0, i.e., not found to interact. Thus, higher numbers indicate stronger interactions.
(§4) For convenience, the assay conditions described in this section are referred to as the “G′ assay” and the “G″ assay,” with the specific conditions described in the preceding section on G assays being referred to as the “G^0 assay.” The “G′ assay” is identical to the “G^0 assay” except at step (2) the peptide concentration is 10 uM instead of 20 uM. […] Correspondingly, it slightly increases the certainty that detected interactions are of sufficient affinity and half-life to be of biological importance and useful therapeutic targets.

Mint 1 (PDZ Domain 1, 2) = molecular target: T5, Mint 1 (PDZ Domain 1, 2) (Homo sapiens, UniProt Q02410); experiment: G' assay, TABLE 12; type: binding; conditions: A450 nm class of biotinylated PL peptide bound; 0 in conc columns = peptide 10 uM, protein 5 ug/ml
T5 construct: When more than one PDZ domain was cloned, the DNA portion cloned represents the PDZ domains and the cDNA portion located between individual domains; made in house; host or cells: E. coli (DH5alpha, BL21 or JM109)
T5 sequence (Q02410 652-828 limits assumed): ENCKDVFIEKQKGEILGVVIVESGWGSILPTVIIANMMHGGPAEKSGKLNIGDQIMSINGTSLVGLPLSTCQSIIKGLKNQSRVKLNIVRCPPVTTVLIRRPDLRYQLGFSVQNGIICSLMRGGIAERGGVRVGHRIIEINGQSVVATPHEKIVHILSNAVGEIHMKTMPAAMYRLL
Protocol: as §2, §3, §4

[7] = molecular target: T6, KIAA0807(S) (PDZ Domain 1) (Homo sapiens, UniProt Q6P0Q8); experiment: G' assay and Kd titration, TABLE 12; type: binding; conditions: A450 nm class of biotinylated PL peptide bound; 0 in conc columns = peptide 10 uM, protein 5 ug/ml
T6 construct: made in house; host or cells: E. coli (DH5alpha, BL21 or JM109)
T6 sequence (Q6P0Q8 with tags, fused parts or gaps): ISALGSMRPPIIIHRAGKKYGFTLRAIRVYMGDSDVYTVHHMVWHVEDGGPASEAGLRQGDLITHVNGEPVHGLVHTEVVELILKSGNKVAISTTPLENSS
Protocol: as §2, §3
For convenience, the assay conditions described in this section are referred to as the “G′ assay” and the “G″ assay,” with the specific conditions described in the preceding section on G assays being referred to as the “G^0 assay.” The “G′ assay” is identical to the “G^0 assay” except at step (2) the peptide concentration is 10 uM instead of 20 uM.

T3 sequence (Q9Y2H9 whole entry, the tested form may be a part): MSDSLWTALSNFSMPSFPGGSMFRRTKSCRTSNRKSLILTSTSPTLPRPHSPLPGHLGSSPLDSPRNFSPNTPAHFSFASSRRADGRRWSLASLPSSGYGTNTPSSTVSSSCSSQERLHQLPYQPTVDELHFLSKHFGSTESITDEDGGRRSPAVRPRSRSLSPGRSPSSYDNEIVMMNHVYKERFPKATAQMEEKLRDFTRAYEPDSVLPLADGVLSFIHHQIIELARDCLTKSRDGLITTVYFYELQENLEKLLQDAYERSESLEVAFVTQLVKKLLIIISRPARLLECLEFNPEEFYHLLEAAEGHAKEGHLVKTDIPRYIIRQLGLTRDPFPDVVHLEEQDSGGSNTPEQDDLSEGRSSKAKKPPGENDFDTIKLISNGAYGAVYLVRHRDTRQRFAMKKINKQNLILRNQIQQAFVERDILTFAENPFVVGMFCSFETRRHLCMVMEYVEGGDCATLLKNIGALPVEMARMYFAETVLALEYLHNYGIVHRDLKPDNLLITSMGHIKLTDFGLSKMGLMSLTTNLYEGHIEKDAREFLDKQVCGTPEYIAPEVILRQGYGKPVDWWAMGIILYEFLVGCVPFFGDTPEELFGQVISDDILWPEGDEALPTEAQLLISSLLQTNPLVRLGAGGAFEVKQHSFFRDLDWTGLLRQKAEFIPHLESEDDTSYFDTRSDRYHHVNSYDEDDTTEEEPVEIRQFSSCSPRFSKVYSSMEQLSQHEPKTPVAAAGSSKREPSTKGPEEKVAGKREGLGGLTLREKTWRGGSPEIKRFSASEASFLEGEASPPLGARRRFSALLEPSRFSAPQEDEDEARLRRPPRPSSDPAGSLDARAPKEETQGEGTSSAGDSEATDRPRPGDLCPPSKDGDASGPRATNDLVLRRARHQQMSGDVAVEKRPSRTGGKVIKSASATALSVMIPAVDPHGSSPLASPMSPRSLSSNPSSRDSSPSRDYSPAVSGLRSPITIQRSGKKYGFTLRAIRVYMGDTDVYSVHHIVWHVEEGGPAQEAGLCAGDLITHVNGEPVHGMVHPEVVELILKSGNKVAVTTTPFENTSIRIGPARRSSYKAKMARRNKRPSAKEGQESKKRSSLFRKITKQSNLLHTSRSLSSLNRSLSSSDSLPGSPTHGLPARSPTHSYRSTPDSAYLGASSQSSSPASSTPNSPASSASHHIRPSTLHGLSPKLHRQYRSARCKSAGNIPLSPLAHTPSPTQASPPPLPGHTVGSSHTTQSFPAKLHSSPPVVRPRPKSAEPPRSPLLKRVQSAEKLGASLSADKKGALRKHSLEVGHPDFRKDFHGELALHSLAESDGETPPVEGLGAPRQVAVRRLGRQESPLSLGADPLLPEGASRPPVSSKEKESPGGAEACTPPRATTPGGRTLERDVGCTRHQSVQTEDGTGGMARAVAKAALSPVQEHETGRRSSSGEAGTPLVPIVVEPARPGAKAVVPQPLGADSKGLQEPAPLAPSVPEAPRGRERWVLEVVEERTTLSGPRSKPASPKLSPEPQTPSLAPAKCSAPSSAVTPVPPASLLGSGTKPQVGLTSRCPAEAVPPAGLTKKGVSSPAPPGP

Sequence: GYGRKKRRQRRRGMTSSSSVV
T cell activation mediated by monoclonal anti-CD3 (IFNγ production) [1]: inhibited T cell activation

Sequence: GGGRGSGLAGGSRGGGQSRQ [HPV E6 77]
binding of E6 C-terminal peptides to a variety of PDZ domains [2]: did not bind any of the PDZ domains tested | Classification [3]: 0 (A450 nm 0, i.e., not found to interact) | Classification ([4]; PDZ BAI-1, PDZ Domain 2): 0 (A450 nm 0, i.e., not found to interact)

Classification [5]: 1 (A450 nm 0-1) | Classification [6]: 2 (A450 nm 1-2) | Classification (KIAA807): 4 (A450 nm 3-4) | Classification (Mint 1 (PDZ Domain 1, 2)): 1 (A450 nm 0-1) | Classification [7]: 5 (A450 nm of 4 more than 2× repeated)
Sequence: KKGTYLTDETHREVKFTSL (Biotin-KKGTYLTDETHREVKFTSL) [CD46]
Classification ([4]; PDZ BAI-1, PDZ Domain 5): 1 (A450 nm 0-1) | PDZ proteins bound by the PL (TABLE 7) ([4]; as cited in the text from TABLE 7): KIAA0973, Mint 1, KIAA807, BAI-1, KIA0807(S)

Sequence: HAMNAAPRAMENAPALRTSH (Biotin-HAMNAAPRAMENAPALRTSH) [HPV E6 57]
binding of E6 C-terminal peptides to a variety of PDZ domains [2]: did not bind any of the PDZ domains tested

Sequence: GYGRKKRRQRRRGSISSSAEV [Tat-CLASP1 fusion peptide]
T cell activation mediated by monoclonal anti-CD3 (IFNγ production) [1]: did not inhibit T cell activation
